According to US20050209157A1, “Short bioactive peptides and methods for their use” (priority 2001, published 2005):
Values after ≈ are worked out from the molar mass of the structure shown. Like-named read-outs stand apart in the source and are kept apart here. No end group written: not given here.

Legend:
MCF7 = assay: Anti-cancer assay, MTT, LD50; type: cell-based; details: MCF7 breast adenocarcinoma line, MTT, 24 hours with peptide
From the text: (§1) Numbers are LD50 values (μg/mL).

in vitro [1] = type: cell-based, human; details: human, human red blood cells
Description: This hemolytic assay is based upon that presented in Journal of Peptide Research 53: 82-90 (1999). […] All procedures were performed according to safety protocols pertaining to the handling and disposal of human body fluids.
Red blood cells (RBCs) were washed three times with PBS (35 mM phosphate buffer 0.15 M NaCl, pH 7.0). RBCs suspended in PBS (0.4% (v/v); about 10 ml per 15 peptides) were prepared. Suspensions (100 μl) were aliquoted to each sample and control tube. Serially diluted peptide solutions (100 μl) were pipetted into the sample tubes. Negative control tubes contained 100 μl PBS; positive control tubes contained 100 μl 1% Triton-X100 detergent. All tubes were incubated for 1 hour at 37° C. The tubes were removed from the incubator and centrifuged at 1000 g for 5 minutes. Supernatant (100 μl) was pipetted to a 96-well polyvinyl chloride plate. The absorbance at 414 nm (A414) was measured, and used to calculate the percent hemolysis according to the following formula. [formula]

in vitro [2] = details: human, WI38 normal lung fibroblast cells
WI38 = details: MTT, 24 hours with peptide; for WI38 LD50: normal fibroblast line
H1299 = assay: Anti-cancer assay, MTT, LD50; type: cell-based; details: 24 hours with peptide, lung large cell carcinoma
From the text: as §1

HeLaS3 = assay: Anti-cancer assay, MTT, LD50; type: cell-based; details: 24 hours with peptide, cervical carcinoma
From the text: as §1

PC3 = assay: Anti-cancer assay, MTT, LD50; type: cell-based; details: 24 hours with peptide, prostate adenocarcinoma
From the text: as §1

BMKC = assay: Anti-cancer assay, MTT, LD50; type: cell-based; details: BMKC cloned melanoma line, 24 hours with peptide
From the text: as §1

SW480 = assay: Anti-cancer assay, MTT, LD50; type: cell-based; details: SW480 colon adenocarcinoma line, 24 hours with peptide
From the text: as §1

[3] = pH 7, hemolytic assay, concentration at 50% hemolysis, 1 hour at 37° C., read-out: LD50
[4] = LD50 WI38, WI38 normal lung fibroblast line, MTT, 24 hours with peptide
[5] = pH 7, Table 26, valine substitution, read-out: Hemolysis RBC LD50
[6] = WI-38 LD50, Table 26, valine substitution

VAKKFAKKFKKFAKKFAKFAFAF-NH2 [P503]
LD50 MCF7 (MCF7): 210 µg/mL
HC50 at 1 h (in vitro [1]; [3]): 20 µg/mL
CC50 at 24 h (in vitro [2]; [4]): 150 µg/mL

VALALKALKKALKKLKKALKKAL-NH2 [P30]
WI38 LD50 (WI38): 93 µg/mL

CC(C)C[C@H](NC(=O)[C@H](C)NC(=O)[C@H](CC(C)C)NC(=O)[C@H](C)NC(=O)[C@H](CC(C)C)NC(=O)[C@H](CCCCN)NC(=O)[C@H](C)NC(=O)[C@H](CC(C)C)NC(=O)[C@H](CCCCN)NC(=O)[C@H](CCCCN)NC(=O)[C@H](C)NC(=O)[C@H](CC(C)C)NC(=O)[C@H](CCCCN)NC(=O)[C@H](C)NC(=O)[C@H](CC(C)C)NC(=O)[C@H](CCCCN)NC(=O)[C@H](CCCCN)NC(=O)[C@H](C)NC(=O)[C@@H](N)C(C)C)C(N)=O [compound 504]
HC50 at 1 h (in vitro [1]; [5]): 70 µg/mL
CC50 at 24 h (in vitro [2]; [6]): 110 µg/mL (≈ 55.3 µM)

FALLKALLKKAL-NH2 [Flak 961]
H1299 LD50 (H1299): 240 µg/mL
HeLaS3 LD50 (HeLaS3): 380 µg/mL
PC3 LD50 (PC3): 120 µg/mL
CC50 at 24 h (in vitro [2]; WI38 LD50, MTT, 24 hours with peptide, normal fibroblast line): 270 µg/mL

VAKLLAKALKKLL-NH2 [P506]
HC50 at 1 h (in vitro [1]; [3]): 120 µg/mL

VAKLLAKALKKLL-NH2 [FLAK50D V]
LD50 MCF7 (MCF7): 45 µg/mL
CC50 at 24 h (in vitro [2]; [4]): 75 µg/mL

VAKALKALLKALKAL-NH2 [FLAK 17 CV]
LD50 MCF7 (MCF7): 23 µg/mL
CC50 at 24 h (in vitro [2]; [4]): 26 µg/mL

CC[C@H](C)[C@H](NC(=O)CN)C(=O)NCC(=O)N[C@@H](C)C(=O)N[C@H](C(=O)N[C@@H](CC(C)C)C(=O)N[C@@H](CCCCN)C(=O)N[C@H](C(=O)N[C@@H](CC(C)C)C(=O)N[C@H](C(=O)N[C@H](C(=O)NCC(=O)N[C@@H](CC(C)C)C(=O)N1CCC[C@H]1C(=O)N[C@@H](C)C(=O)N[C@@H](CC(C)C)C(=O)N[C@H](C(=O)N[C@@H](CO)C(=O)N[C@@H](Cc1c[nH]c2ccccc12)C(=O)N[C@H](C(=O)N[C@@H](CCCCN)C(=O)N[C@@H](CCCNC(=N)N)C(=O)N[C@@H](CCCCN)C(=O)N[C@@H](CCCNC(=N)N)C(=O)N[C@@H](CCC(N)=O)C(=O)N[C@@H](CCC(N)=O)C(N)=O)[C@@H](C)CC)[C@@H](C)CC)[C@@H](C)O)[C@@H](C)O)C(C)C)C(C)C [MELITTIIN]
LD50 BMKC (BMKC): 18 µg/mL
H1299 LD50 (H1299): 25 µg/mL
HeLaS3 LD50 (HeLaS3): 35 µg/mL
LD50 MCF7 (MCF7): 9 µg/mL
PC3 LD50 (PC3): 13 µg/mL
LD50 SW480 (SW480): 23 µg/mL
WI38 LD50 (WI38): 16 µg/mL
CC50 at 24 h (in vitro [2]; [4]): 16 µg/mL (≈ 5.62 µM)

FAKKLAKKLKKLAKKLAK-NH2 [Shiva 10(1-18)AM]
LD50 BMKC (BMKC): 66 µg/mL
LD50 MCF7 (MCF7): 45 µg/mL
LD50 SW480 (SW480): 63 µg/mL
CC50 at 24 h (in vitro [2]; [4]): 101 µg/mL

MPKWKVFKKIEKVGRNIRNGIVKAGPAIAVLGEAKALG-OH [SB37COOH]
LD50 BMKC (BMKC): 120 µg/mL
H1299 LD50 (H1299): 220 µg/mL
HeLaS3 LD50 (HeLaS3): 150 µg/mL
LD50 MCF7 (MCF7): 175 µg/mL
LD50 SW480 (SW480): 82 µg/mL
WI38 LD50 (WI38): 130 µg/mL
CC50 at 24 h (in vitro [2]; [4]): 130 µg/mL

VALALKALKKLAKKLKKLAKKAL-NH2 [FLAK04 AM V]
LD50 MCF7 (MCF7): 84 µg/mL
CC50 at 24 h (in vitro [2]; [4]): 95 µg/mL

VAKKLAKLAKKLLAL-NH2 [compound 505]
HC50 at 1 h (in vitro [1]; [5]): 620 µg/mL
CC50 at 24 h (in vitro [2]; [6]): 85 µg/mL

VALALKALKKL-NH2 [compound 180]
HC50 at 1 h (in vitro [1]; [5]): 850 µg/mL
CC50 at 24 h (in vitro [2]; [6]): 1000 µg/mL

GIGKFLHSAKKFGKAFVGGIMNS-NH2 [P16, reference compound]
HC50 at 1 h (in vitro [1]; [3]): 550 µg/mL

KLAKKLAKLAKLAKAL-NH2 [P159, reference compound]
LD50 BMKC (BMKC): 140 µg/mL
H1299 LD50 (H1299): 74 µg/mL
HeLaS3 LD50 (HeLaS3): 275 µg/mL
LD50 MCF7 (MCF7): 61 µg/mL
PC3 LD50 (PC3): 145 µg/mL
LD50 SW480 (SW480): 140 µg/mL
WI38 LD50 (WI38): 82 µg/mL
CC50 at 24 h (in vitro [2]; [4]): 82 µg/mL

VALALKALKKLLKKLKKLAKKAL-NH2 [03 AMV]
LD50 MCF7 (MCF7): 62 µg/mL
CC50 at 24 h (in vitro [2]; [4]): 77 µg/mL

VAKKLAKLAKKLLAL-NH2 [FLAK43 AM V]
LD50 MCF7 (MCF7): 86 µg/mL
CC50 at 24 h (in vitro [2]; [4]): 85 µg/mL

VALALKALKKALKKLKKALKKAL-OH [compound 508]
HC50 at 1 h (in vitro [1]; [5]): 70 µg/mL
CC50 at 24 h (in vitro [2]; [6]): 190 µg/mL

VALALKALKKALKKLKKALKKAL-OH [HECATE AC V]
LD50 MCF7 (MCF7): 160 µg/mL
CC50 at 24 h (in vitro [2]; [4]): 190 µg/mL

FALALKALKKA-NH2 [Flak 96H]
LD50 BMKC (BMKC): > (> indicates greater than 1000)
H1299 LD50 (H1299): > (> indicates greater than 1000)
HeLaS3 LD50 (HeLaS3): > (> indicates greater than 1000)
LD50 MCF7 (MCF7): > (> indicates greater than 1000)
PC3 LD50 (PC3): > (> indicates greater than 1000)
LD50 SW480 (SW480): > (> indicates greater than 1000)
WI38 LD50 (WI38): > (> indicates greater than 1000)
LD50 WI38 (WI38; WI38 normal lung fibroblast line): > (> indicates greater than 1000)

VAKFLAKFLKKAL-NH2 [P502, VAKFLAKFLKKAL-NH2]
HC50 at 1 h (in vitro [1]; [3]): 100 µg/mL

FAKKFAKKFKKFAKKFAKFAFAF-NH2 [compound 301]
HC50 at 1 h (in vitro [1]; [5]): 10 µg/mL

FAKKLAKKLKKLAKKLIGAVLKV-OH [SHIVA 11 [(1-16)ME(2-9]-COOH]
LD50 BMKC (BMKC): 94 µg/mL
H1299 LD50 (H1299): 54 µg/mL
HeLaS3 LD50 (HeLaS3): 180 µg/mL
LD50 MCF7 (MCF7): 95 µg/mL
PC3 LD50 (PC3): 28 µg/mL
LD50 SW480 (SW480): 120 µg/mL
WI38 LD50 (WI38): 34 µg/mL
CC50 at 24 h (in vitro [2]; [4]): 34 µg/mL

CC(C)C[C@H](NC(=O)[C@H](C)NC(=O)[C@H](CC(C)C)NC(=O)[C@H](C)NC(=O)[C@H](CC(C)C)NC(=O)[C@H](CCCCN)NC(=O)[C@H](C)NC(=O)[C@H](CC(C)C)NC(=O)[C@H](CCCCN)NC(=O)[C@H](CCCCN)NC(=O)[C@H](C)NC(=O)[C@H](CC(C)C)NC(=O)[C@H](CCCCN)NC(=O)[C@H](C)NC(=O)[C@H](CC(C)C)NC(=O)[C@H](CCCCN)NC(=O)[C@H](CCCCN)NC(=O)[C@H](C)NC(=O)[C@@H](N)C(C)C)C(N)=O [FLAK 25 AM V]
LD50 MCF7 (MCF7): 130 µg/mL
CC50 at 24 h (in vitro [2]; [4]): 110 µg/mL (≈ 55.3 µM)

CC(C)C[C@H](NC(=O)[C@H](C)NC(=O)[C@H](CC(C)C)NC(=O)[C@H](C)NC(=O)[C@H](CC(C)C)NC(=O)[C@H](CCCCN)NC(=O)[C@H](C)NC(=O)[C@H](CC(C)C)NC(=O)[C@H](CCCCN)NC(=O)[C@H](CCCCN)NC(=O)[C@H](C)NC(=O)[C@H](CC(C)C)NC(=O)[C@H](CCCCN)NC(=O)[C@H](C)NC(=O)[C@H](CC(C)C)NC(=O)[C@H](CCCCN)NC(=O)[C@H](CCCCN)NC(=O)[C@H](C)NC(=O)[C@@H](N)Cc1ccccc1)C(N)=O [P36]
LD50 BMKC (BMKC): 56 µg/mL
H1299 LD50 (H1299): 57 µg/mL
LD50 MCF7 (MCF7): 9 µg/mL
PC3 LD50 (PC3): 19 µg/mL
LD50 SW480 (SW480): 30 µg/mL
HC50 at 1 h (in vitro [1]; [3]): 85 µg/mL
WI38 LD50 (WI38): 19 µg/mL
CC50 at 24 h (in vitro [2]; [4]): 19 µg/mL (≈ 9.32 µM)

VAKFLAKFLKKAL-NH2 [FLAK50 Q1V]
LD50 MCF7 (MCF7): 92 µg/mL
CC50 at 24 h (in vitro [2]; [4]): 64 µg/mL

VAKFLAKFLKKAL-NH2 [compound 502]
HC50 at 1 h (in vitro [1]; [5]): 100 µg/mL
CC50 at 24 h (in vitro [2]; [6]): 64 µg/mL

VAKKLAKLAKKLLAL-NH2 [P505, VAKKLAKLAKKLLAL-NH2]
HC50 at 1 h (in vitro [1]; [3]): 620 µg/mL

VALALKALKKLAKKLKKLAKKAL-NH2 [compound 509]
HC50 at 1 h (in vitro [1]; [5]): 40 µg/mL
CC50 at 24 h (in vitro [2]; [6]): 95 µg/mL

VAKALKALLKALKAL-NH2 [P501, VAKALKALLKALKAL-NH2]
HC50 at 1 h (in vitro [1]; [3]): 15 µg/mL

VAKKFAKKFKKFAKKFAKFAFAF-NH2 [compound 503]
HC50 at 1 h (in vitro [1]; [5]): 20 µg/mL
CC50 at 24 h (in vitro [2]; [6]): 150 µg/mL
